According to patent US10314923B2, “Silybin injection and preparation method therefor” (TASLY PHARMACEUTICAL GROUP CO., LTD., priority 2015, dated 2019):
Each block holds one compound with its values, some of them ahead of it.

Legend:
[1] = aqueous solution; cited from earlier work
[2] = taken orally; Wu J W et al. 2007; cited from earlier work
[3] = Verification of preparation method of CN02125823.6: discoloration and UV scanning for destructiveness of NaOH to silybin; type: physicochemical; conditions: scanned within the wavelength of 190-600 nm
Description: The Chinese patent application CN02125823.6 with the title “silymarin injection containing cyclodextrin or derivatives thereof” and the publication number of CN1391894A, according to the implementing scheme recorded in the Description, has the key technical features of adding silymarin into an aqueous solution containing cyclodextrin, regulating the pH of the solution to alkalinity using sodium hydroxide to dissolve silybin, and after dissolution, regulating the pH value to be 6.0 to 6.5 using hydrochloric acid to obtain a silymarin cyclodextrin inclusion compound. During verification, the silymarin is replaced with silybin, and the verification is strictly performed according to the implementing scheme described in embodiment 1 of the patent.
Dissolving 3 g of hydroxypropyl-β-cyclodextrin in 10 ml of water for injection, adding 300 mg of silybin, regulating the pH value to be 10 with 1N of NaOH solution, continuously stirring for 5 hours to dissolve the silybin, regulating the pH to be 6.5 with 1N of HCl solution, and performing filtration, bacterium removal, sub-packaging, freeze-drying and sealing, to obtain a silybin freeze-dried powder for injection.
However, for the preparation method of the present invention, the discoloration phenomenon is not found in the whole preparation process. […]

[4] = Wang Hongchen 1983; cited from earlier work
[5] = Inclusion stability of silybin injections containing different types of cyclodextrin, standing at room temperature; type: physicochemical; conditions: 50 g of cyclodextrin in 1000 ml of water for injection
Description: The types of cyclodextrin recorded in the Chinese patent application CN200410041364.0 include: β-cyclodextrin, hydroxypropyl-β-cyclodextrin, hydroxyethyl-β-cyclodextrin, methyl-β-cyclodextrin, glucosyl-β-cyclodextrin and sulfonyl-β-cyclodextrin. The cyclodextrin adopted in the present invention is sulfobutylether-β-cyclodextrin and is a specific inclusion material for the present invention. In contrast tests, silybin injections containing different types of cyclodextrin are respectively prepared by adopting the same formulation constituents, formulation dosage and preparation process. Standing is preformed at room temperature for one-week, and the inclusion stability of the injections is observed with the passage of time, that is, the time of medicine precipitation is regarded as a study index to screen the types of cyclodextrin.
Allow the injections to stand at room temperature for one week, and respectively observe the inclusion stability of the injections over time, i.e., study the influence of different types of cyclodextrins on the inclusion stability of silybin.

Compound: CNC[C@H](O)[C@@H](O)[C@H](O)[C@H](O)CO.COc1cc(C2Oc3ccc(C4Oc5cc(O)cc(O)c5C(=O)C4O)cc3OC2CO)ccc1O (centres unmarked) [silybin N-methylglucamine]
pH value [1]: about 11

UV absorption peaks (verification of destructiveness caused by NaOH to silybin) [3]: 287.5 nm
Compound: COc1cc([C@@H]2Oc3cc([C@@H]4Oc5cc(O)cc(O)c5C(=O)[C@H]4O)ccc3O[C@H]2CO)ccc1O [silybin, Silybin]
absolute bioavailability [2]: 0.95% | water solubility and lipid solubility [4]: poor

dissolution of cyclodextrin in water [5]: cannot completely dissolve in water
Compound: OC[C@H]1O[C@@H]2O[C@H]3[C@H](O)[C@@H](O)[C@@H](O[C@H]4[C@H](O)[C@@H](O)[C@@H](O[C@H]5[C@H](O)[C@@H](O)[C@@H](O[C@H]6[C@H](O)[C@@H](O)[C@@H](O[C@H]7[C@H](O)[C@@H](O)[C@@H](O[C@H]8[C@H](O)[C@@H](O)[C@@H](O[C@H]1[C@H](O)[C@H]2O)O[C@@H]8CO)O[C@@H]7CO)O[C@@H]6CO)O[C@@H]5CO)O[C@@H]4CO)O[C@@H]3CO [β-cyclodextrin]
